Test results taken from patent publication US7157453B2, “Urea substituted imidazoquinolines” (3M Innovation Properties Company, priority 1999, dated 2007).
Counter-ions that a name gives are not always drawn.

What was measured:
[1] = system: interferon (α); assay: Cytokine Induction in Human Cells: interferon (α) by ELISA; format: cell-based; details: PBMC; human PBMCs, incubated 18 to 24 hours, lowest concentration found to induce interferon
Source text: (§1) An in vitro human blood cell system was used to assess cytokine induction by compounds of the invention. Activity is based on the measurement of interferon and tumor necrosis factor (α) (IFN and TNF, respectively) secreted into culture media as described by Testerman et. al. In “Cytokine Induction by the Immunomodulators Imiquimod and S-27609”, Journal of Leukocyte Biology, 58, 365–372 (September, 1995).
(§2) Whole blood is collected by venipuncture into EDTA vacutainer tubes from healthy human donors. Peripheral blood mononuclear cells (PBMCs) are separated from whole blood by density gradient centrifugation using Histopaque®-1077 (Sigma Chemicals, St. Louis, Mo.). The PBMCs are suspended at 3–4×10^6 cells/mL in RPMI 1640 medium containing 10% fetal bovine serum, 2 mM L-glutamine and 1% penicillin/streptomycin solution (RPMI complete). The PBMC suspension is added to 48 well flat bottom sterile tissue culture plates (Costar, Cambridge, Mass. or Becton Dickinson Labware, Lincoln Park, N.J.) containing an equal volume of RPMI complete media containing test compound.
(§3) The compounds are solubilized in dimethyl sulfoxide (DMSO). The DMSO concentration should not exceed a final concentration of 1% for addition to the culture wells.
(§4) The solution of test compound is added at 60 μM to the first well containing RPMI complete and serial (three fold or ten fold) dilutions are made. The PBMC suspension is then added to the wells in an equal volume, bringing the test compound concentrations to the desired range. The final concentration of PBMC suspension is 1.5–2×10^6 cells/mL. The plates are covered with sterile plastic lids, mixed gently and then incubated for 18 to 24 hours at 37° C. in a 5% carbon dioxide atmosphere.
(§5) Following incubation the plates are centrifuged for 5–10 minutes at 1000 rpm (˜200×g) at 4° C. The cell culture supernatant is removed with a sterile polypropylene pipet and transferred to sterile polypropylene tubes. Samples are maintained at −30 to −70° C. until analysis. The samples are analyzed for interferon (α) and tumor necrosis factor (α) by ELISA
Interferon (α) concentration is determined by ELISA using a Human Multi-Species kit from PBL Biomedical Laboratories, New Brunswick, N.J.
(§6) The table below lists the lowest concentration found to induce interferon and the lowest concentration found to induce tumor necrosis factor for each compound.

[2] = system: tumor necrosis factor (α); assay: Cytokine Induction in Human Cells: tumor necrosis factor (α) by ELISA; format: cell-based; details: PBMC; human PBMCs, incubated 18 to 24 hours, lowest concentration found to induce tumor necrosis factor
Source text: as §1, §2, §3, §4, §5
Tumor necrosis factor (α) (TNF) concentration is determined using ELISA kits available from Genzyme, Cambridge, Mass.; R&D Systems, Minneapolis, Minn.; or Pharmingen, San Diego, Calif.
as §6

| SMILES | minimal effective concentration [1] [µM] | minimal effective concentration [2] [µM] |
| --- | --- | --- |
| COCCc1nc2c(N)nc3ccccc3c2n1CCCCNC(=S)Nc1ccc(N(C)C)c2ccccc12 [Example 126] | 0.0001 | 1 |
| CCCNC(=S)NCCCCn1c(CCOC)nc2c(N)nc3ccccc3c21 [Example 127] | 0.0001 | 1 |
| CCCCc1nc2c(N)nc3c(c2n1CCCCNC(=O)NC12CC4CC(CC(C4)C1)C2)CCCC3 [Example 132] | 0.01 | 1 |
| CCCCc1nc2c(N)nc3c(c2n1CCCCNC(=O)NCc1ccccc1)CCCC3 [Example 133] | 0.1 | 10 |
| COCCc1nc2c(N)nc3c(c2n1CCCCNC(=O)N(C)C)CCCC3 [Example 134] | 0.001 | 1 |
| COCCc1nc2c(N)nc3c(c2n1CCCCNC(=O)N1CCOCC1)CCCC3 [Example 135] | 0.01 | 10 |
| COCCc1nc2c(N)nc3c(c2n1CCCCNC(=O)Nc1ccccc1)CCCC3 [Example 136] | 0.0001 | 1 |
| CCCCc1nc2c(N)nc3c(c2n1CCCCNC(=O)NS(=O)(=O)c1ccccc1)CCCC3 [Example 137] | 1 | 10 |
| CCCCc1nc2c(N)nc3ccccc3c2n1CCNC(=O)NS(=O)(=O)c1ccc(F)cc1 [Example 139] | > 10 | > 10 |
| CCCCc1nc2c(N)nc3ccccc3c2n1CCNC(=O)NS(=O)(=O)c1ccc(Cl)cc1 [Example 140] | 10 | > 10 |
| COCCc1nc2c(N)nc3ccccc3c2n1CCCCNC(=O)NC(=O)c1ccccc1 [Example 141, N^1-{4-[4-Amino-2-(2-methoxyethyl)-1H-imidazo[4,5-c]quinolin-1-yl]butyl}-N^3-benzoylurea Trifluoroacetate] | > 10 | 10 |
| COCCc1nc2c(N)nc3ccccc3c2n1CCCCNC(=O)OCc1ccccc1 [Example 142, N-{4-[4-Amino-2-(2-methoxyethyl)-1H-imidazo[4,5-c]quinolin-1-yl]butyl}carbamate Trifluoroacetate] | 0.0001 | 0.1 |
| COCCc1nc2c(N)nc3ccccc3c2n1CCCCCCCCNC(=O)Nc1ccccc1 [Example 145, N-{8-[4-amino-2-(2-methoxyethyl)-1H-imidazo[4,5-c]quinolin-1-yl]octyl}-N′-phenylurea] | 0.01 | 0.04 |
| CCCCc1nc2c(N)nc3ccccc3c2n1CCCNC(=O)Nc1ccccc1 [Example 146, N-[3-(4-amino-2-butyl-1H-imidazo[4,5-c]quinolin-1-yl)propyl]-N′-phenylurea] | 0.01 | 0.12 |
| CCCCc1nc2c(N)nc3ccccc3c2n1CCCNC(=O)OC(C)(C)C [Example 147, tert-butyl 3-(4-amino-2-butiyl-1H-imidazo[4,5-c]quinolin-1-yl)propylcarbamate] | 0.01 | 0.12 |
| COCCc1nc2c(N)nc3ccccc3c2n1CCCNC(=O)Nc1ccccc1 [Example 161, N-{3-[4-amino-2-(2-methoxyethyl)-1H-imidazo[4,5-c]quinolin-1-yl]propyl}-N′-phenylurea] | 0.01 | 0.01 |
| COCCc1nc2c(N)nc3ccccc3c2n1CC(C)(C)CNC(=O)Nc1ccccc1 [Example 169, N-{3-[4-amino-2-(2-methoxyethyl)-1H-imidazo[4,5-c]quinolin-1-yl]-2,2-dimethylpropyl}-N′-phenylurea] | 0.01 | 0.01 |
| CCCCCc1nc2c(N)nc3c(c2n1CCCCNC(=O)N1CCOCC1)CCCC3 [Example 172, N-[4-(4-amino-2-pentyl-6,7,8,9-tetrahydro-1H-imidazo[4,5-c]quinolin-1-yl)butyl]morpholine-4-carboxamide hydrochloride] | 0.01 | 0.37 |
